Laboratory results: patent publication US20240358693A1, “METHODS OF TREATING PAIN” (Aisa Pharma, Inc., priority 2023, published 2024)

Test system: participants with SSc-RP
Test: Scleroderma Health Assessment Questionnaire (SHAQ): disability indices and visual analog scales
Type: in vivo, human
Source text: The standard, validated, patient reported outcome measures tool for SSc patients, the Scleroderma Health Assessment Questionnaire (SHAQ), will be used to assess the participant qualify of life. Details are attached in the Appendix. The participant quality of life will be scored, and a disability index calculated for each questionnaire completed by the patient at Screening and each in-clinic visit. The absolute change in participant quality of life from baseline to the end of each dosing period will be calculated similar to frequency data as before.
The SHAQ includes a Raynaud's VAS, which will be reported at screening and each in-clinic visit. The absolute change in Raynaud-VAS, assessed by the participants response to the SHAQ question ‘In the past 7 days, how much have your Raynaud's interfered with your daily activities?’ at baseline and the end of each dosing period will be calculated similar to frequency data as before.
The SHAQ is used to calculate a Disability Index to assess the participant qualify of life. The eight categories assessed by the Disability Index are 1) dressing and grooming, 2) arising, 3) eating, 4) walking, 5) hygiene, 6) reach, 7) grip, and 8) common daily activities. For each of these categories, patients report the amount of difficulty they have in performing two or three specific activities.
There are four possible responses for the Disability Index questions: • Without any difficulty=0 • With some difficulty=1 • With much difficulty=2 • Unable to do=3. • The highest score reported by the patient for any component question of the eight categories determines the score for that category. • If a component question is left blank or the response is too ambiguous to assign a score, then the score for that category is determined by the remaining completed question(s). • If all component questions are blank or if more than one answer is given, then follow up with the respondent is required. • If the respondent's mark is between the response columns, then move it to the closest one. If it's directly between the two, move it to the higher one.
Each of the disability items on the SHAQ has a companion aids/devices variable that is used to record what type(s) of assistance, if any, the participant uses for his/her usual activities. These variables (see below) are coded as follows: • 0=No assistance is needed. • 1=A special device is used by the patient in his/her usual activities. • 2=The patient usually needs help from another person. • 3=The patient usually needs BOTH a special device AND help from another person.
The scoring variables and scoring rules permit the computation of two disability indices, the Standard Disability Index and the Alternative Disability Index.
This question results in a new set of category scores that are computed by adjusting the score for each category, if necessary, based on the patient's use of an aid or device or assistance for that category. If either devices and/or help from another person are checked for a category, the score is set to “2”, unless the score is already “3” (i.e., scores of “0” or “1” are increased to “2”). For example, if the highest score for the dressing category is “1”, and the patient says they use a device for dressing, the computed category score would be “2”. The sum of the computed categories scores is then calculated and divided by the number of categories answered. This gives a score in the 0 to 3 range.
The aid and device variables are not used to calculate the alternative disability index; it is calculated by adding the scores for each of the categories and dividing by the number of categories answered. This gives a score in the 0 to 3 range.
The standard, validated, patient reported outcome measures tool for SSc patients, the SHAQ, was collected at the time points specified in the study schedules (FIG. 2 and FIGS. 4A and 4B) to assess the participant's quality of life. The SHAQ included a Raynaud's VAS that will also be reported separately.

[1] = Any Cilnidipine (N = 14), Day 12, Modified ITT, SSc patients, Part A
[2] = Any Cilnidipine (N = 14), Day 12, Modified ITT, SSc patients, Part A, Subject 01-110 Day 12 score excluded
[3] = Any Cilnidipine (N = 17), Day 12, PP Population Part A, SSc patients
[4] = Any Cilnidipine (N = 17), PP Population Part A, SSc patients
[5] = Baseline, Cilnidipine 10 mg (N = 4), Patients with Diagnosis of SSc, PP Population Part A

## COCCOC(=O)C1=C(C)NC(C)=C(C(=O)OC/C=C/c2ccccc2)C1c1cccc([N+](=O)[O-])c1 (stereo not shown) [Cilnidipine, cilnidipine]
20 mg
  SHAQ VAS- Breathing problems Change: −0.83
  SHAQ VAS- Raynaud's Change: −1.27
  SHAQ VAS- overall disease severity Change: −1.63
  SHAQ VAS-Pain: −1.1
[1]
  SHAQ Alternative Disability Index: Change from Baseline, Mean: −0.016
  SHAQ Alternative Disability Index: Change from Baseline, Median: −0.031
  SHAQ Alternative Disability Index: In-Clinic Visit (Day 12), Mean: 0.430
  SHAQ Alternative Disability Index: In-Clinic Visit (Day 12), Median: 0.250
  SHAQ Alternative Disability Index: Percent Change from Baseline, Mean: 17.01%
  SHAQ Alternative Disability Index: Percent Change from Baseline, Median: −11.11%
  SHAQ Standard Disability Index: Change from Baseline, Mean: −0.050
  SHAQ Standard Disability Index: Change from Baseline, Median: 0.000
  SHAQ Standard Disability Index: In-Clinic Visit (Day 12), Mean: 0.521
  SHAQ Standard Disability Index: In-Clinic Visit (Day 12), Median: 0.250
  SHAQ Standard Disability Index: Percent Change from Baseline, Mean: 2.96%
  SHAQ Standard Disability Index: Percent Change from Baseline, Median: 0.00%
  SHAQ Visual Analogue Scale - Finger Ulcers: Change from Baseline, Mean: −0.623
  SHAQ Visual Analogue Scale - Finger Ulcers: Change from Baseline, Median: −0.100
  SHAQ Visual Analogue Scale - Finger Ulcers: In-Clinic Visit (Day 12), Mean: 0.900
  SHAQ Visual Analogue Scale - Finger Ulcers: In-Clinic Visit (Day 12), Median: 0.200
  SHAQ Visual Analogue Scale - Finger Ulcers: Percent Change from Baseline, Mean: −33.91%
  SHAQ Visual Analogue Scale - Finger Ulcers: Percent Change from Baseline, Median: −36.11%
  SHAQ Visual Analogue Scale - Intestinal Problems: Change from Baseline, Mean: −0.404
  SHAQ Visual Analogue Scale - Intestinal Problems: Change from Baseline, Median: 0.000
  SHAQ Visual Analogue Scale - Intestinal Problems: In-Clinic Visit (Day 12), Mean: 1.225
  SHAQ Visual Analogue Scale - Intestinal Problems: In-Clinic Visit (Day 12), Median: 0.650
  SHAQ Visual Analogue Scale - Intestinal Problems: Percent Change from Baseline, Mean: 0.28%
  SHAQ Visual Analogue Scale - Intestinal Problems: Percent Change from Baseline, Median: −10.00%
  SHAQ Visual Analogue Scale - Overall Disease Severity: Change from Baseline, Mean: −0.904
  SHAQ Visual Analogue Scale - Overall Disease Severity: Change from Baseline, Median: −1.300
  SHAQ Visual Analogue Scale - Overall Disease Severity: In-Clinic Visit (Day 12), Mean: 2.146
  SHAQ Visual Analogue Scale - Overall Disease Severity: In-Clinic Visit (Day 12), Median: 1.300
  SHAQ Visual Analogue Scale - Overall Disease Severity: Percent Change from Baseline, Mean: −30.92%
  SHAQ Visual Analogue Scale - Overall Disease Severity: Percent Change from Baseline, Median: −41.67%
  SHAQ Visual Analogue Scale - Pain: Change from Baseline, Mean: −0.492
  SHAQ Visual Analogue Scale - Pain: Change from Baseline, Median: −0.500
  SHAQ Visual Analogue Scale - Pain: In-Clinic Visit (Day 12), Mean: 2.236
  SHAQ Visual Analogue Scale - Pain: In-Clinic Visit (Day 12), Median: 2.150
  SHAQ Visual Analogue Scale - Pain: Percent Change from Baseline, Mean: −23.84%
  SHAQ Visual Analogue Scale - Pain: Percent Change from Baseline, Median: −21.87%
  SHAQ Visual Analogue Scale - Raynaud's: Change from Baseline, Mean: −0.538
  SHAQ Visual Analogue Scale - Raynaud's: Change from Baseline, Median: −0.300
  SHAQ Visual Analogue Scale - Raynaud's: In-Clinic Visit (Day 12), Mean: 1.798
  SHAQ Visual Analogue Scale - Raynaud's: In-Clinic Visit (Day 12), Median: 1.250
  SHAQ Visual Analogue Scale - Raynaud's: Percent Change from Baseline, Mean: −18.26%
  SHAQ Visual Analogue Scale - Raynaud's: Percent Change from Baseline, Median: −33.33%
[2]
  SHAQ Visual Analogue Scale - Breathing Problems: Change from Baseline, Mean: −0.015
  SHAQ Visual Analogue Scale - Breathing Problems: Change from Baseline, Median: 0.000
  SHAQ Visual Analogue Scale - Breathing Problems: In-Clinic Visit (Day 12), Mean: 1.515
  SHAQ Visual Analogue Scale - Breathing Problems: In-Clinic Visit (Day 12), Median: 0.400
  SHAQ Visual Analogue Scale - Breathing Problems: Percent Change from Baseline, Mean: 51.98%
  SHAQ Visual Analogue Scale - Breathing Problems: Percent Change from Baseline, Median: −21.33%
[3]
  SHAQ Standard Disability Index, Change from Baseline, Mean: −0.041
  SHAQ Standard Disability Index, Change from Baseline, Median: 0.000
  SHAQ Standard Disability Index, Percent Change from Baseline, Mean: 3.27%
  SHAQ Standard Disability Index, Percent Change from Baseline, Median: 0.00%
[4]
  SHAQ Standard Disability Index, In-Clinic Visit (Day 12), Mean: 0.539
  SHAQ Standard Disability Index, In-Clinic Visit (Day 12), Median: 0.250
[5]
  SHAQ Alternative Disability Index, Mean: 0.500
  SHAQ Alternative Disability Index, Median: 0.438
  SHAQ Standard Disability Index, Mean: 0.656
